The assay concerns the target T1, PP5 (Rattus norvegicus, UniProt P53042).
T1 construct: The full-length PP5 and its deletion variants were purified and the activity was determined; made in house; host or cells: E. coli BL21-CodonPlus (DE3)-RIL
T1 sequence (P53042 1-499): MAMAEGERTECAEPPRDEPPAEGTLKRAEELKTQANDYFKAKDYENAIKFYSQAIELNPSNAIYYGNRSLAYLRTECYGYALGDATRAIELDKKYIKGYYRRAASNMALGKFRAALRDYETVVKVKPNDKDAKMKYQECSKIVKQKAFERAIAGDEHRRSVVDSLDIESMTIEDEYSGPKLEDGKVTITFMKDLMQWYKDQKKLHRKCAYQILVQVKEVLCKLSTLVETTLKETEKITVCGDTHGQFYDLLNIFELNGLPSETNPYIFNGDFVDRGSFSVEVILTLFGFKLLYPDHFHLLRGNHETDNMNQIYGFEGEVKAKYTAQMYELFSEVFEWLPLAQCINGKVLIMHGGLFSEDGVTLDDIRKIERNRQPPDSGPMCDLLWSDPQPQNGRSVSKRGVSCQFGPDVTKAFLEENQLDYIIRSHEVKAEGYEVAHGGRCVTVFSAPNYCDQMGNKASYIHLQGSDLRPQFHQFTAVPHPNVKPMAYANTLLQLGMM
The assay is described as follows: pNPP-based phosphatase assay with full-length mammalian PP5. It is filed as biochemical. The protocol: Cloning and purification of PPH-5, Hsp90/DAF-21, CDC-37, YFP-Hsp90/DAF-21 were performed as described before (Gaiser et al., 2009; Gaiser et al., 2011; Gaiser et al., 2010). The purified human phosphatases PP1, PP2A and PP2B/PP3 were purified as described (Baumgrass et al., 2001; Mondragon et al., 1997; Tung et al., 1985). The expression clones of mammalian PP5, PP5-ΔN165 (166-499) and PP5-ΔC8 (1-491) were generated by PCR from plasmid-DNA containing full-length PP5 from Rattus norvegicus. PCR-products were inserted into the pET28b expression plasmid (Merck, Darmstadt, Germany) and verified by DNA sequencing (GATC Biotech, Konstanz, Germany). Proteins were expressed in BL21-CodonPlus (DE3)-RIL bacteria (Stratagene, LaJolla, USA). Bacterial cultures were grown to an OD600 of 0.8 and induced with 1 mM IPTG. Cells were disrupted using a cell disruption machine (IUL Instruments, Freiburg, Germany) and the lysate was loaded onto a HisTrap FF column (GE Healthcare, Freiburg, Germany). Protein was eluted in a buffer containing 400 mM imidazole. Eluted protein was dialyzed and applied to a ResourceQ anion exchange column (GE Healthcare, Freiburg, Germany). Finally, proteins were subjected to size exclusion chromatography on Superdex 200 PrepGrade gel filtration columns (GE Healthcare, Freiburg, Germany). Protein purity was assessed by SDS-PAGE and the molecular mass was determined by a MALDI-TOF/TOF mass spectrometer (Bruker, Bremen, Germany). Proteins were frozen in liquid nitrogen in 40 mM HEPES/KOH, pH 7.5, 20 mM KCl, 1 mM DTT and stored at -80 °C.
Phosphatase activity was followed by the conversion of para-nitrophenyl phosphate (pNPP) to para-nitophenole and absorption of the product at 410 nm (ε: 15100 cm^-1 M^-1) in a Varian Cary 100 spectrophotometer (Agilent Technologies, Boeblingen, Germany). The reaction was measured in 40 mM HEPES/KOH, 20 mM KCl, 5 mM MnCl2, 1 mM DTT, pH 7.5 and 60 mM pNPP at 20 °C if not indicated otherwise. Phosphatase concentration ranged from 50 to 500 nM in the assay. If indicated, Hsp90/DAF-21 peptide was supplemented in the assay at a concentration of 60 µM.
For characterization of the binding site of the P5SAs, deletion constructs of rat PP5 were generated. […] The full-length PP5 and its deletion variants were purified and the activity was determined in the absence and presence of 10 µM and 100 µM (45 µM in case of P5SA-5) of the substances, respectively (Figure 3A-C).

Experimental findings from patent EP2878677A1, “Activators of protein phosphatase 5” (Deutsches Zentrum für Neurodegenerative Erkrankungen e.V. …, priority 2013, dated 2015) are described below.

SMILES strings stand for the structures.

For the compound `FC(F)(F)c1c2c(nc3c(-c4ccc(Cl)cc4)cnn13)CCC2` [P5SA-1], the fold activation (at 143 µM) came out at 2.7 fold.

Compound `COc1ccc(-c2nc(Cc3ccc(Cl)cc3)no2)cc1OC` [P5SA-2] returned a fold activation (at 714 µM) of 13.7 fold.

In turn, `CN1CCc2c(sc(-n3cccc3)c2CNC(=O)NC23CC4CC(CC(C4)C2)C3)C1` [P5SA-3] displayed a fold activation (at 714 µM) of 7.0 fold.

`O=c1cc2nc(-c3ccc(F)cc3)nc(SCc3ccc(Br)cc3)n2[nH]1` [P5SA-4] displayed a fold activation (at 143 µM) of 16.4 fold.

`CNC(=O)c1c(NC(=O)COCC(=O)Nc2sc3c(c2C(=O)NC)CCC3)sc2c1CCC2` [P5SA-5] came in with a fold activation (at 45 µM) of 22.1 fold. Further, the Kd (rat PP5, read-out: binding constant (affinity towards the mammalian protein)) is 10 ± 5 µM.
